Data as given in PubChem BioAssay AID1963983 (Molecular Pharmacology Branch, DTP, NCI, 2024).

System: 186277-243-T-J2-PDC multi-cell spheroid viability
Experiment: Anticancer human tumor 186277-243-T-J2-PDC patient-derived colon adenocarcinoma cell line growth inhibition [PI3K]
Details: for IC50: curve of first compound; for viability, T/C: stronger effect = lower value
In short: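 Stroma-containing spheroids: tumor line, pooled-donor HUVEC, hMSC. Treatments: targeted agents with PI3K inhibitors. Dosing: clinically relevant, half-log spacing, 10 microM ceiling without known Cmax. Read-out: cell viability.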

[1] = second compound 0.0316 µM, first compound 0.0316 µM
[2] = second compound 0.0316 µM, first compound 0.1 µM
[3] = second compound 0.0316 µM, first compound 0.316 µM
[4] = second compound 0.0316 µM, first compound 1 µM
[5] = second compound 0.0316 µM, first compound 3.16 µM
[6] = second compound 0.0316 µM, first compound 10 µM
[7] = second compound 0.1 µM, first compound 0.0316 µM
[8] = second compound 0.1 µM, first compound 0.1 µM
[9] = second compound 0.1 µM, first compound 0.316 µM
[10] = second compound 0.1 µM, first compound 1 µM
[11] = second compound 0.1 µM, first compound 3.16 µM
[12] = second compound 0.1 µM, first compound 10 µM
[13] = second compound 0.316 µM, first compound 0.0316 µM
[14] = second compound 0.316 µM, first compound 0.1 µM
[15] = second compound 0.316 µM, first compound 0.316 µM
[16] = second compound 0.316 µM, first compound 1 µM
[17] = second compound 0.316 µM, first compound 3.16 µM
[18] = second compound 0.316 µM, first compound 10 µM
[19] = second compound 1 µM, first compound 0.0316 µM
[20] = second compound 1 µM, first compound 0.1 µM
[21] = second compound 1 µM, first compound 0.316 µM
[22] = second compound 1 µM, first compound 1 µM
[23] = second compound 1 µM, first compound 3.16 µM
[24] = second compound 1 µM, first compound 10 µM
[25] = second compound 3.16 µM, first compound 0.0316 µM
[26] = second compound 3.16 µM, first compound 0.1 µM
[27] = second compound 3.16 µM, first compound 0.316 µM
[28] = second compound 3.16 µM, first compound 1 µM
[29] = second compound 3.16 µM, first compound 3.16 µM
[30] = second compound 3.16 µM, first compound 10 µM
[31] = second compound 10 µM, first compound 0.0316 µM
[32] = second compound 10 µM, first compound 0.1 µM
[33] = second compound 10 µM, first compound 0.316 µM
[34] = second compound 10 µM, first compound 1 µM
[35] = second compound 10 µM, first compound 3.16 µM
[36] = second compound 10 µM, first compound 10 µM
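Further: spheroids exposed to compounds for seven days before viability reading.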
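Wherever viability, T/C is given: 100% = DMSO vehicle control viability.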

## CNC(=O)c1ccc(N2C(=S)N(c3ccc(C#N)c(C(F)(F)F)c3)C(=O)C2(C)C)cc1F + Cc1nc(NC(=O)N2CCCC2C(N)=O)sc1-c1ccnc(C(C)(C)C(F)(F)F)c1
Second compound 0.0316 µM
  IC50: > 10 µM
Second compound 0.1 µM
  IC50: > 10 µM
Second compound 0.316 µM
  IC50: > 10 µM
Second compound 1 µM
  IC50: > 10 µM
Second compound 3.16 µM
  IC50: > 10 µM
Second compound 10 µM
  IC50: < 0.0316 µM
[1]
  viability, T/C: 83.5%
[2]
  viability, T/C: 90%
[3]
  viability, T/C: 102%
[4]
  viability, T/C: 91.9%
[5]
  viability, T/C: 103%
[6]
  viability, T/C: 109%
[7]
  viability, T/C: 106%
[8]
  viability, T/C: 92.5%
[9]
  viability, T/C: 109%
[10]
  viability, T/C: 100%
[11]
  viability, T/C: 114%
[12]
  viability, T/C: 95.4%
[13]
  viability, T/C: 97.1%
[14]
  viability, T/C: 95.5%
[15]
  viability, T/C: 92%
[16]
  viability, T/C: 115%
[17]
  viability, T/C: 102%
[18]
  viability, T/C: 86.1%
[19]
  viability, T/C: 106%
[20]
  viability, T/C: 96%
[21]
  viability, T/C: 111%
[22]
  viability, T/C: 105%
[23]
  viability, T/C: 103%
[24]
  viability, T/C: 86%
[25]
  viability, T/C: 62.7%
[26]
  viability, T/C: 62.6%
[27]
  viability, T/C: 66.4%
[28]
  viability, T/C: 66.7%
[29]
  viability, T/C: 70.1%
[30]
  viability, T/C: 58.7%
[31]
  viability, T/C: 13.9%
[32]
  viability, T/C: 17.7%
[33]
  viability, T/C: 14.7%
[34]
  viability, T/C: 14%
[35]
  viability, T/C: 15.5%
[36]
  viability, T/C: 13.8%

## CCN1CCN(Cc2ccc(Nc3ncc(F)c(-c4cc(F)c5nc(C)n(C(C)C)c5c4)n3)nc2)CC1 + COc1c(OCCCN2CCOCC2)ccc2c3n(c(=NC(=O)c4cnc(N)nc4)nc12)CCN3
Second compound 0.00316 µM
  IC50: > 1 µM
Second compound 0.01 µM
  IC50: > 1 µM
Second compound 0.0316 µM
  IC50: 0.234 µM
Second compound 0.1 µM
  IC50: < 0.00316 µM
Second compound 0.316 µM
  IC50: < 0.00316 µM
Second compound 1 µM
  IC50: < 0.00316 µM
Second compound 0.00316 µM, first compound 0.00316 µM
  viability, T/C: 95.3%
Second compound 0.00316 µM, first compound 0.01 µM
  viability, T/C: 111%
Second compound 0.00316 µM, first compound 0.0316 µM
  viability, T/C: 94.3%
Second compound 0.00316 µM, first compound 0.1 µM
  viability, T/C: 134%
Second compound 0.00316 µM, first compound 0.316 µM
  viability, T/C: 151%
Second compound 0.00316 µM, first compound 1 µM
  viability, T/C: 108%
Second compound 0.01 µM, first compound 0.00316 µM
  viability, T/C: 101%
Second compound 0.01 µM, first compound 0.01 µM
  viability, T/C: 107%
Second compound 0.01 µM, first compound 0.0316 µM
  viability, T/C: 113%
Second compound 0.01 µM, first compound 0.1 µM
  viability, T/C: 112%
Second compound 0.01 µM, first compound 0.316 µM
  viability, T/C: 123%
Second compound 0.01 µM, first compound 1 µM
  viability, T/C: 69.4%
Second compound 0.0316 µM, first compound 0.00316 µM
  viability, T/C: 68.4%
Second compound 0.0316 µM, first compound 0.01 µM
  viability, T/C: 59.7%
[1]
  viability, T/C: 57.8%
[2]
  viability, T/C: 52.4%
[3]
  viability, T/C: 54.8%
[4]
  viability, T/C: 33.2%
Second compound 0.1 µM, first compound 0.00316 µM
  viability, T/C: 19.9%
Second compound 0.1 µM, first compound 0.01 µM
  viability, T/C: 17.7%
[7]
  viability, T/C: 16%
[8]
  viability, T/C: 13%
[9]
  viability, T/C: 14.5%
[10]
  viability, T/C: 12.8%
Second compound 0.316 µM, first compound 0.00316 µM
  viability, T/C: 6.67%
Second compound 0.316 µM, first compound 0.01 µM
  viability, T/C: 7.13%
[13]
  viability, T/C: 4.73%
[14]
  viability, T/C: 3.28%
[15]
  viability, T/C: 6.05%
[16]
  viability, T/C: 7.03%
Second compound 1 µM, first compound 0.00316 µM
  viability, T/C: 2.68%
Second compound 1 µM, first compound 0.01 µM
  viability, T/C: 3%
[19]
  viability, T/C: 2.82%
[20]
  viability, T/C: 2.7%
[21]
  viability, T/C: 7%
[22]
  viability, T/C: 4.26%

## C[C@@H](NC(=O)c1ncnc(N)c1Cl)c1ncc(C(=O)Nc2cc(C(F)(F)F)c(Cl)cn2)s1 + CC(Nc1ncnc2nc[nH]c12)c1cc2cccc(Cl)c2c(=O)n1-c1ccccc1
Second compound 0.0316 µM
  IC50: > 10 µM
Second compound 0.1 µM
  IC50: > 10 µM
Second compound 0.316 µM
  IC50: > 10 µM
Second compound 1 µM
  IC50: > 10 µM
Second compound 3.16 µM
  IC50: > 10 µM
Second compound 10 µM
  IC50: 6.16 µM
[1]
  viability, T/C: 92.6%
[2]
  viability, T/C: 89.9%
[3]
  viability, T/C: 93.7%
[4]
  viability, T/C: 83.4%
[5]
  viability, T/C: 105%
[6]
  viability, T/C: 79.1%
[7]
  viability, T/C: 84.3%
[8]
  viability, T/C: 87.2%
[9]
  viability, T/C: 90.1%
[10]
  viability, T/C: 105%
[11]
  viability, T/C: 108%
[12]
  viability, T/C: 88%
[13]
  viability, T/C: 94.5%
[14]
  viability, T/C: 107%
[15]
  viability, T/C: 94.3%
[16]
  viability, T/C: 95%
[17]
  viability, T/C: 105%
[18]
  viability, T/C: 80.5%
[19]
  viability, T/C: 88.1%
[20]
  viability, T/C: 105%
[21]
  viability, T/C: 96.7%
[22]
  viability, T/C: 91%
[23]
  viability, T/C: 102%
[24]
  viability, T/C: 61.9%
[25]
  viability, T/C: 107%
[26]
  viability, T/C: 97.2%
[27]
  viability, T/C: 104%
[28]
  viability, T/C: 99.3%
[29]
  viability, T/C: 93.3%
[30]
  viability, T/C: 66.4%
[31]
  viability, T/C: 84.8%
[32]
  viability, T/C: 91.7%
[33]
  viability, T/C: 107%
[34]
  viability, T/C: 95.5%
[35]
  viability, T/C: 72.8%
[36]
  viability, T/C: 33.5%
